The values that follow are results of earlier work, collected in patent EP2939710B1, “Active Mixtures” (Symrise AG, priority 2014, dated 2015).

For the series the following is noted: water (20° dH) at 20 °C, solid active agent.

Turning to `Nc1nc2c(ncn2COCCO)c(=O)[nH]1` [Acyclovir, 2-Amino-1,9-dihydro-9-((2-hydroxyethoxy)methyl)-6H-Purin-6-one], the solubility in water entry is “less than 5 g/L”.
